Measurements as given in paper PMC5762338, “A novel orally available Syk/Src/Jak2 inhibitor, SKLB-850, showed potent anti-tumor activities in B cell lymphoma (BCL) models” (Oncotarget, 2017).

Tests used:
Ramos tumors = assay: In situ TUNEL of tumor tissues from the Ramos model; type: in vivo, NOD/SCID mice
From the text: (§1) The ability of inducing apoptosis of SKLB-850 in tumor tissues was examined by TUNEL. […] We then examined apoptotic tumor cells in B-cell lymphoma samples from BCL patients after SKLB-850 treatment by FCM. As shown in Figure 6C and 6F, SKLB-850 induced cell apoptosis (14.10 ± 4.04%), and R788 had the same effect but relatively weak (7.60 ± 0.52%). To better understand the mechanism of antitumor activities in vivo, Ki67 and CD20 in mouse tumor tissues were detected by immunohischemistry; Ki67 was a marker of proliferation in the diagnosis of tumors and CD20 was highly expressed in B cell lymphomas.
Cell apoptosis in Ramos tumors was determined by a TUNEL assay following the manufacturer’s instructions (Promega). The number of TUNEL-positive cells was quantified by fluorescence microscopy and the apoptotic index in 6 random fields per group was counted.

[1] = tested on: B-cell lymphoma samples from BCL patients; assay: Apoptosis of B-cell lymphoma samples from BCL patients, FCM; type: cell-based, Human; details: BCL patient samples, 24 hours, concentration not given
From the text: as §1
Figure 6 SKLB-850 inhibited tumor growth by inducing apoptosis of tumor tissues from the Ramos model and BCL samples from patients (A and D) TUNEL immunofluorescent staining of tumor tissues from the Ramos model (n-6 mice per group). (B and E) Immunohistochemical staining analyses of Ki67 and CD20 in tumor tissues from the Ramos model. (C and F) Apoptosis of tumor cells from the BCL patients induced by SKLB-850. Tumor tissues from BCL patients were treated with a series of concentrations of SKLB-850 or R788, and stained with AnnexinV-FITC and propidium iodide, then analyzed with a flow cytometer. […]
Human lymph nodes were collected aseptically from B-cell lymphoma patients (n = 4 for both groups, Supplementary Table 1). […] Cell apoptosis was analyzed with a flow cytometer (BD FACS Calibur, BD, USA).

Ramos xenograft = Ramos xenograft mouse model; type: in vivo, NOD/SCID mice
Protocol: The in vivo anti-BCL effects of SKLB-850 were investigated in the Ramos and HBL xenograft mouse models with R788 being taken as a positive control. The animals were treated orally once daily for 21 days (Ramos model) or 36 days (HBL-1 model).
All animal studies were conducted according to the guidelines of the Animal Care and Use Committee of Sichuan University (Permit Number: 20121205, Chengdu, Sichuan, China). Ramos and HBL-1 tumor cells were established by subcutaneously injecting 1×10^7 cells (100μL) into the hind flank region of 7–8 week old female NOD/SCID mice (ICR, NOD/SCID). When tumors reached a volume of ∼200 mm^3, mice were randomly divided into different groups (6 per group), and SKLB-850 (40 mg/kg, 20mg/kg) or vehicle (5% DMSO, 25% PEG400, and 70% waters) were given once daily by oral gavage. Tumor growth and body weight were measured every three days or every day during the treatment. Tumor volumes were calculated using the formula as follow: tumor volume (mm^3) = 0.5× length (mm) × width (mm) ^2. Studies were typically terminated when tumors in vehicle treated animals reached an average size of 2,000 mm^3. Solid tumors were removed and processed for immunohistochemical analysis and terminal deoxynucleotidyl transferase-mediated dUTP nick end labeling (TUNEL) assay.

Row | SMILES | apoptosis in tumor tissues (TUNEL) (Ramos tumors) | cell apoptosis [1] [%] | anti-tumor effect (in words) (Ramos xenograft; positive control, orally once daily) | tumor inhibition rate (Ramos xenograft; 20 mg/kg orally once daily for 21 days) | tumor inhibition rate (Ramos xenograft; 40 mg/kg orally once daily for 21 days)
1 | COc1cc(Nc2ncc(F)c(Nc3ccc4c(n3)N(COP(=O)(O)O)C(=O)C(C)(C)O4)n2)cc(OC)c1OC [R788, reference compound] | 242.20 ± 20.00 % of control | 7.60 ± 0.52 | some anti-tumor effect | – | –
2 | CN1CCN(c2ccc(Nc3ncc(F)c(Nc4ccc(Cl)cc4C(N)=O)n3)cc2)CC1 [SKLB-850, 5-chloro-2-((5-fluoro-2-((4-(4-methylpiperazin-1-yl)phenyl)amino)pyrimidin-4-yl)amino) benzamide] | 406.00 ± 20.70 % of control | 14.10 ± 4.04 | – | 73.65% ± 21.22% | 78.82% ± 9.35%
